Results as given in patent publication US12077503B2, “Substituted cyclic amides and their use as herbicides” (FMC CORPORATION, priority 2015, dated 2024).

How the values were obtained:
Type in all cases: in vivo
[1] = test system: Galium (catchweed bedstraw, Galium aparine); test: Test A postemergence; conditions: Galium, post-emergence, 240 h
Procedure, shortened: (§1)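 Treatment is preemergence as a directed soil spray after planting, or postemergence at the one- to two-leaf stage, with test chemical in a non-phytotoxic solvent mixture plus surfactant. Plants stay in the greenhouse about 10 d before visual injury scoring on a 0 to 100 scale versus untreated controls.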

Kochia (Kochia scoparia) [2] = test: Test A postemergence; conditions: Bassia scoparia, post-emergence, 240 h
Procedure, shortened: as §1

[3] = test system: ryegrass, Italian (Italian ryegrass, Lolium multiflorum); test: Test A postemergence; conditions: Lolium multiflorum, post-emergence, 240 h, 125 g ai/ha, postemergence, visual injury vs untreated controls after approx. 10 d; 0 = no effect, 100 = complete control; read-out: Ryegrass, Italian plant response rating (0 to 100 scale)
Procedure, shortened: as §1

corn (Zea mays) = test: Test A postemergence; conditions: Zea mays, post-emergence, 240 h
Procedure, shortened: as §1

[4] = test system: blackgrass (Alopecurus myosuroides); test: Test A postemergence; conditions: Alopecurus myosuroides, post-emergence, 240 h
Procedure, shortened: as §1

[5] = test system: barnyardgrass (Echinochloa crus-galli); test: Test A postemergence; conditions: Echinochloa crus-galli, post-emergence, 240 h
Procedure, shortened: as §1

[6] = test system: wheat (Triticum aestivum); test: Test A postemergence; conditions: Triticum aestivum, post-emergence, 240 h, 125 g ai/ha, postemergence, visual injury vs untreated controls after approx. 10 d; 0 = no effect, 100 = complete control; read-out: Wheat plant response rating (0 to 100 scale)
Procedure, shortened: as §1

[7] = test system: pigweed (Amaranthus retroflexus); test: Test A postemergence; conditions: Amaranthus retroflexus, post-emergence, 240 h, 125 g ai/ha, postemergence, visual injury vs untreated controls after approx. 10 d; 0 = no effect, 100 = complete control; read-out: Pigweed plant response rating (0 to 100 scale)
Procedure, shortened: as §1

[8] = test system: ragweed (common ragweed, Ambrosia elatior); test: Test A postemergence; conditions: Ambrosia artemisiifolia, post-emergence, 240 h, 125 g ai/ha, postemergence, visual injury vs untreated controls after approx. 10 d; 0 = no effect, 100 = complete control; read-out: Ragweed plant response rating (0 to 100 scale)
Procedure, shortened: as §1

[9] = test system: giant foxtail (Setaria faberii); test: Test A postemergence; conditions: Setaria faberi, post-emergence, 240 h
Procedure, shortened: as §1

Kochia (Kochia scoparia) [10] = test: Test A preemergence; conditions: Bassia scoparia, pre-emergence, 240 h, 0 to 100 scale where 0 is no effect and 100 is complete control, read-out: Kochia plant response rating
Procedure, shortened: as §1

[11] = test system: ryegrass, Italian (Italian ryegrass, Lolium multiflorum); test: Test A preemergence; conditions: Lolium multiflorum, pre-emergence, 240 h, 0 to 100 scale where 0 is no effect and 100 is complete control, read-out: Ryegrass, Italian plant response rating
Procedure, shortened: as §1

[12] = test system: barnyardgrass (Echinochloa crus-galli); test: Test A preemergence; conditions: Echinochloa crus-galli, pre-emergence, 240 h, 0 to 100 scale where 0 is no effect and 100 is complete control, read-out: Barnyardgrass plant response rating
Procedure, shortened: as §1

[13] = test system: pigweed (Amaranthus retroflexus); test: Test A preemergence; conditions: Amaranthus retroflexus, pre-emergence, 240 h, 0 to 100 scale where 0 is no effect and 100 is complete control, read-out: Pigweed plant response rating
[14] = test system: ragweed (common ragweed, Ambrosia elatior); test: Test A preemergence; conditions: Ambrosia artemisiifolia, pre-emergence, 240 h, 0 to 100 scale where 0 is no effect and 100 is complete control, read-out: Ragweed plant response rating
Procedure, shortened: as §1

[15] = test system: giant foxtail (Setaria faberii); test: Test A preemergence; conditions: Setaria faberi, pre-emergence, 240 h, 0 to 100 scale where 0 is no effect and 100 is complete control, read-out: Foxtail, Giant plant response rating
Procedure, shortened: as §1

[16] = test system: ducksalad (Heteranthera limosa); test: Test B flooded paddy test; conditions: Heteranthera limosa, 250 g ai/ha, Flood; 0 to 100 scale where 0 is no effect and 100 is complete control; read-out: Ducksalad plant response rating
Procedure, shortened: (§2)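 Visual ratings (0 none to 100 complete control) are relative to untreated plants, taken 13–15 d after treatment in a greenhouse. Test material went straight into floodwater standing 3 cm above the soil, kept constant, on plants at the 2-leaf stage.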

[17] = test system: barnyardgrass (Echinochloa crus-galli); test: Test B flooded paddy test; conditions: Echinochloa crus-galli, 250 g ai/ha, Flood; 0 to 100 scale where 0 is no effect and 100 is complete control; read-out: Barnyardgrass plant response rating
Procedure, shortened: as §2

rice (Oryra sativa) = test: Test B flooded paddy test; conditions: Oryza sativa, 250 g ai/ha, Flood; 0 to 100 scale where 0 is no effect and 100 is complete control; read-out: Rice plant response rating
Procedure, shortened: as §2

[18] = test system: sedge, umbrella (small-flower umbrella sedge, Cyperus difformis); test: Test B flooded paddy test; conditions: Cyperus difformis, 250 g ai/ha, Flood; 0 to 100 scale where 0 is no effect and 100 is complete control; read-out: Sedge, Umbrella plant response rating
Procedure, shortened: as §2

[19] = 125 g ai/ha, preemergence, approx. 10 d

CON1CC[C@H](c2cccc(C(F)(F)F)c2)[C@@H](C(=O)Nc2cccc(Cl)c2F)C1=O [Compound 1171] showed a pest or weed control at 125 g/ha ([1]; 125 g ai/ha, postemergence, visual injury vs untreated controls after approx. 10 d, 0 = no effect, 100 = complete control, read-out: Galium plant response rating (0 to 100 scale)) of 0%, a pest or weed control at 31 g/ha ([1]; Postemergence, 31 g ai/ha, visual injury after approx. 10 d, 0 to 100 scale, 0 no effect, 100 complete control, read-out: Plant response rating, Galium) of 0% and a pest or weed control at 125 g/ha (Kochia (Kochia scoparia) [2]; 125 g ai/ha, postemergence, visual injury vs untreated controls after approx. 10 d, 0 = no effect, 100 = complete control, read-out: Kochia plant response rating (0 to 100 scale)) of 0%. It also gave a pest or weed control at 31 g/ha (Kochia (Kochia scoparia) [2]; Postemergence, 31 g ai/ha, visual injury after approx. 10 d, 0 to 100 scale, 0 no effect, 100 complete control, read-out: Plant response rating, Kochia) of 0%, a pest or weed control at 125 g/ha [3] of 0% and a plant injury at 125 g/ha (corn (Zea mays); 125 g ai/ha, postemergence, visual injury vs untreated controls after approx. 10 d, 0 = no effect, 100 = complete control, read-out: Corn plant response rating (0 to 100 scale)) of 0%. For the same molecule, the Corn plant response rating (crop injury, 0 = no effect, 100 = complete kill) at 31 g/ha (corn (Zea mays); Postemergence, 31 g ai/ha, visual injury after approx. 10 d, 0 to 100 scale, 0 no effect, 100 complete control) was 0%, the pest or weed control at 125 g/ha ([4]; 125 g ai/ha, postemergence, visual injury vs untreated controls after approx. 10 d, 0 = no effect, 100 = complete control, read-out: Blackgrass plant response rating (0 to 100 scale)) was 0% and the pest or weed control at 31 g/ha ([4]; Postemergence, 31 g ai/ha, visual injury after approx. 10 d, 0 to 100 scale, 0 no effect, 100 complete control, read-out: Plant response rating, Blackgrass) was 0%. It also gave a pest or weed control at 125 g/ha ([5]; 125 g ai/ha, postemergence, visual injury vs untreated controls after approx. 10 d, 0 = no effect, 100 = complete control, read-out: Barnyardgrass plant response rating (0 to 100 scale)) of 70%, a pest or weed control at 31 g/ha ([5]; Postemergence, 31 g ai/ha, visual injury after approx. 10 d, 0 to 100 scale, 0 no effect, 100 complete control, read-out: Plant response rating, Barnyardgrass) of 20% and a plant injury at 125 g/ha [6] of 0%. It also gave a pest or weed control at 125 g/ha [7] of 0%, a pest or weed control at 125 g/ha [8] of 0% and a pest or weed control at 125 g/ha ([9]; 125 g ai/ha, postemergence, visual injury vs untreated controls after approx. 10 d, 0 = no effect, 100 = complete control, read-out: Foxtail, Giant plant response rating (0 to 100 scale)) of 60%. The pest or weed control at 31 g/ha ([9]; Postemergence, 31 g ai/ha, visual injury after approx. 10 d, 0 to 100 scale, 0 no effect, 100 complete control, read-out: Plant response rating, Foxtail, Giant) was 30%, the pest or weed control at 31 g/ha (Kochia (Kochia scoparia) [10]; 31 g ai/ha, Preemergence) was 0% and the pest or weed control at 125 g/ha (Kochia (Kochia scoparia) [10]; [19]) was 30%. The pest or weed control at 31 g/ha ([11]; 31 g ai/ha, Preemergence) was 0%, the pest or weed control at 125 g/ha [11, 19] was 60% and the pest or weed control at 31 g/ha ([12]; 31 g ai/ha, Preemergence) was 40%. For the same molecule, the pest or weed control at 125 g/ha [12, 19] was 80%, the pest or weed control at 31 g/ha ([13]; 31 g ai/ha, Preemergence) was 0% and the pest or weed control at 125 g/ha [13, 19] was 40%. The pest or weed control at 31 g/ha ([14]; 31 g ai/ha, Preemergence) was 0%, the pest or weed control at 125 g/ha [14, 19] was 0% and the pest or weed control at 31 g/ha ([15]; 31 g ai/ha, Preemergence) was 70%. For the same molecule, the pest or weed control at 125 g/ha [15, 19] was 90%, the pest or weed control at 250 g/ha [16] was 0% and the pest or weed control at 250 g/ha [17] was 30%. For the same molecule, the pest or weed control at 250 g/ha (rice (Oryra sativa)) was 0% and the pest or weed control at 250 g/ha [18] was 0%.
